“And” between values parts separate entries of the source, which are not always exact repeats. Equal entries are not always repeated. ± gives the uncertainty stated by the source.
Cc1cccc(Cl)c1
viscosity
Details	303.15 K	308.15 K	313.15 K	318.15 K
100 kPa	0.743 ± 0.05 mPa·s	0.701 ± 0.05 mPa·s	0.663 ± 0.05 mPa·s	0.624 ± 0.05 mPa·s
101 kPa	0.751 ± 0.013 mPa·s and 0.743 ± 0.02 mPa·s	0.701 ± 0.02 mPa·s	0.652 ± 0.011 mPa·s and 0.663 ± 0.019 mPa·s	0.624 ± 0.018 mPa·s

CNCCO
viscosity
Details	293.15 K	298.15 K	303.15 K	308.15 K	313.15 K	318.15 K	323.15 K
101 kPa	–	–	8.596 ± 0.1 mPa·s	7.075 ± 0.084 mPa·s	5.892 ± 0.07 mPa·s	4.949 ± 0.059 mPa·s	4.204 ± 0.05 mPa·s
101.3 kPa	13.23 ± 0.35 mPa·s	10.63 ± 0.54 mPa·s	8.612 ± 0.44 mPa·s and 8.535 ± 0.23 mPa·s	7.07 ± 0.36 mPa·s and 7.014 ± 0.18 mPa·s	5.883 ± 0.3 mPa·s and 5.841 ± 0.15 mPa·s	4.953 ± 0.25 mPa·s and 4.919 ± 0.13 mPa·s	4.214 ± 0.21 mPa·s and 4.186 ± 0.11 mPa·s
101.33 kPa	–	12 ± 0.23 mPa·s	9.528 ± 0.19 mPa·s	–	6.396 ± 0.13 mPa·s	–	–

CNC(C)=O
viscosity
Details	293.15 K	298.15 K	303.15 K	303.18 K	308.15 K	313 K	313.15 K	318.15 K
101 kPa	5.56 ± 0.34 mPa·s	4.771 ± 0.29 mPa·s	4.087 ± 0.25 mPa·s and 3.822 ± 0.25 mPa·s (2×)	3.65 ± 0.03 mPa·s	3.535 ± 0.21 mPa·s	3.012 mPa·s	3.078 ± 0.19 mPa·s and 2.904 ± 0.2 mPa·s	2.764 ± 0.17 mPa·s and 2.607 ± 0.18 mPa·s
101.33 kPa	–	–	–	–	3.38 ± 0.025 mPa·s	–	3.012 ± 0.016 mPa·s and 3.004 ± 0.023 mPa·s	2.673 ± 0.02 mPa·s

CCCCCCCCCCOC(C)=O
Details	viscosity [mPa·s]
303.15 K, 101.3 kPa	2.145 ± 0.016

Oc1ccc(Cl)cc1
Details	viscosity [mPa·s]
308.15 K, 101.33 kPa	8.228 ± 0.13

Cn1cc[n+](CCCC#N)c1.O=S(=O)([O-])C(F)(F)F
101 kPa
Details	viscosity [mPa·s]
293.15 K	811.5 ± 76
298.15 K	580.6 ± 48
303.15 K	422.5 ± 30
308.15 K	310.1 ± 19
313.15 K	230.6 ± 12
318.15 K	177.1 ± 7.8
323.15 K	141.4 ± 5.4

FC(F)(F)C(F)(F)C(F)(F)C(F)(F)C(F)(F)C(F)(F)F
101 kPa
Details	viscosity [mPa·s]
298 K	0.635 ± 0.014
303 K	0.589 ± 0.013
308 K	0.548 ± 0.012

N#C[C-](C#N)C#N.OCCC[n+]1ccccc1
101 kPa
Details	viscosity [mPa·s]
293.15 K	126.3 ± 13
298.15 K	92.54 ± 9.5
303.15 K	69.51 ± 7.1
308.15 K	53.84 ± 5.4
313.15 K	42.53 ± 4.3
318.15 K	34.64 ± 3.5
323.15 K	28.1 ± 2.8

C[C@@H]1CCCC[C@H]1O
101 kPa
Details	viscosity [mPa·s]
298.15 K	37.35 ± 0.49
303.15 K	25.29 ± 0.38

Source: the CheMixHub viscosity set
